Measurements reported in paper PMC10731459, “A SARS-CoV-2 NSP7 homolog of a Treg epitope suppresses CD4+ and CD8+ T cell memory responses” (Frontiers in Immunology, 2023).
Where two headings read alike, the source gives them in different places. Where no end group is shown, it is not given here.

Key:
HLA-DRB1*15:01 = target: T1, HLA-DRB1*15:01 (Homo sapiens, UniProt P01903+P01911); experiment: biochemical; assay type: binding
T1 construct: purchased Benaroya Research Institute, Seattle, Washington

HLA-DRB1*07:01 = HLA-DRB1*07:01 (Homo sapiens, UniProt P01903+P01911, A100R/A102G/A103Q/D57E/D86V/E43K/F76Y/K127E/L162R/M171V/P40G/Q125H/Q99D/R33Q/R42Y/R54Q/S133A/S66F/T210M/V115G/Y107V/Y59L/Y89S); experiment: HLA binding assay, DRB1*07:01
HLA-DRB1*01:01 = target: T2, HLA-DRB1*01:01 (Homo sapiens, UniProt P01903+P01911, A100R/D57E/F55L/F60I/F76Y/I96L/L162R/M171V/P40L/Q125E/R42F/V115G/Y59C); experiment: HLA binding assay, DRB1*01:01
T2 construct: purchased Benaroya Research Institute, Seattle, Washington

HLA-DRB1*03:01 = target: T3, HLA-DRB1*03:01 (Homo sapiens, UniProt P01903+P01911, A100K/A102G/A103R/A169T/F55Y/I96L/K41T/L162R/M171V/P40S/Q125H/Q178H/Q39Y/R42S/S66N/T106N/T262R/W38E/Y61H); experiment: HLA binding assay, DRB1*03:01
T3 construct: purchased Benaroya Research Institute, Seattle, Washington

HLA-DRB1*04:01 = target: T4, HLA-DRB1*04:01 (Homo sapiens, UniProt P01903+P01911, A100K/A169T/F76Y/I96L/K127E/L162R/M171V/N62H/P40V/Q125Y/R42H/S133A/S149N/S66Y/V115G/V209L/W38E); experiment: HLA binding assay, DRB1*04:01
T4 construct: purchased Benaroya Research Institute, Seattle, Washington

HLA-DRB1*11:01 = HLA-DRB1*11:01 (Homo sapiens, UniProt P01903+P01911, A100R/A169T/A87E/I96F/K41T/L162R/M171V/P40S/Q125H/Q178H/Q39Y/Q99D/R42S/S66Y/T262R/V115G/W38E); experiment: HLA binding assay, DRB1*11:01
HLA-DRB1*11:01, sequence (P01903 26-254 limits assumed, other chains not shown): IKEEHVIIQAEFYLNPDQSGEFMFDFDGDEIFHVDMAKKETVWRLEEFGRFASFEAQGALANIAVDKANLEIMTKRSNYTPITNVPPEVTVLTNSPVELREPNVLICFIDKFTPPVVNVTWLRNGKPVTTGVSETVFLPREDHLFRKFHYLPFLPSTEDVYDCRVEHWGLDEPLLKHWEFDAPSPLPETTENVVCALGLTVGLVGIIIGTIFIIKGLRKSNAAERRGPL
HLA-DRB1*09:01 = HLA-DRB1*09:01 (Homo sapiens, UniProt P01903+P01911, A100R/A103E/D57H/D86V/F55Y/F60I/F76Y/I96F/K127E/L162R/M171V/P40D/Q125H/Q99R/R33Q/R42F/S133A/S66N/T210M/V115G/W38K/Y107V/Y59G/Y89S); experiment: HLA binding assay, DRB1*09:01
human CD4+ T cells = assay type: cell-based

Substance: EKMVSLLSVLLSM [NSP7-289]
- IC50 (HLA-DRB1*15:01; read-out: HLA-DRB1 (IC50) *1501): 200 nM
- IC50 (HLA-DRB1*07:01; read-out: HLA-DRB1 (IC50) *0701): 2680 nM
- IC50 (HLA-DRB1*01:01; read-out: HLA-DRB1 (IC50) *0101): 270 nM
- IC50 (HLA-DRB1*03:01; read-out: HLA-DRB1 (IC50) *0301): 31000 nM
- IC50 (HLA-DRB1*04:01; read-out: HLA-DRB1 (IC50) *0401): 28800 nM
- IC50 (HLA-DRB1*11:01; read-out: HLA-DRB1 (IC50) *1101): 3240 nM
- IC50 (HLA-DRB1*09:01; read-out: HLA-DRB1 (IC50) *0901): 7790 nM

Substance: TT: TT (Astarte Biologics, cat no. 1002), stimulating antigen
- increase of CD4+ T cell proliferation by TT stimulation (human CD4+ T cells): roughly 20 fold

Substance: KSTYRVVSVLTVLHQD-NH2 [Tregitope 289z]
- IC50 (HLA-DRB1*15:01): 2520 nM
- IC50 (HLA-DRB1*07:01): 200 nM
- IC50 (HLA-DRB1*01:01): 160 nM
- IC50 (HLA-DRB1*03:01): 8990 nM
- IC50 (HLA-DRB1*04:01): 650 nM
- IC50 (HLA-DRB1*11:01): 480 nM
- IC50 (HLA-DRB1*09:01): 220 nM
